According to PMC6270821, “ROS-Mediated Cytotoxic Effect of Copper(II) Hydrazone Complexes against Human Glioma Cells” (Molecules, 2014):

Key:
EB-CT-DNA = test: Competitive binding with EB bound to CT-DNA (fluorescence); design: species or system calf; conditions: for apparent binding constant Kapp (EB-CT-DNA): KEB 1.0 × 10^7 M^−1, [EB] = 10 µM; for number of binding sites n (EB-CT-DNA): Scatchard equation; for Stern-Volmer quenching constant Ksv (EB-CT-DNA) / binding constant K (EB-CT-DNA, Scatchard) / hypochromism in the EB-CT-DNA emission band at 602 nm: Tris-HCl pH 7.20, 25 °C; for hypochromism in the EB-CT-DNA emission band at 602 nm: complex up to 100 µM
Experimental: Steady-state competitive binding experiments using complexes 1 and 2were undertaken to get further proof for the binding of the complexes to DNA. The technique is based on the decrease of EB fluorescence resulting from the competitive displacement of EB from a DNA groove by a compound that competes for the same site.
The quenching data were analyzed by the Stern-Volmer equation: F0/F = Ksv[Q] + 1 (2) where F0 is the emission intensity in the absence of quencher, F is the emission intensity in the presence of quencher, Ksv is the quenching constant, and [Q] is the quencher concentration. The Ksv value is obtained as a slope from the plot of F0/F vs. [Q] [34].
The apparent binding constants (Kapp) were calculated from Equation (3): KEB [EB] = Kapp [complex] (3) where KEB is 1.0 × 10^7 M^−1, [EB] = 10 µM, and [complex] is the complex concentration when the fluorescence intensity of EB is 50%. This value is obtained from the plot F0/F vs. [complex] when F0/F = 2.
The binding constants (K) were calculated by the Scatchard Equation (4) (see Figure 6): log[(F0 − F)/F] = logK + nlog[Q] (4) where F0 and F are the fluorescence intensities of EB in the absence and presence of compound; [Q] is the compound concentration; K is the binding constant of compound with EB and n is the number of binding sites. K is the antilog of the intercept and n is the slope obtained from the plot of log[(F0 − F)/F] vs. […].
The affinity of the complexes for DNA was evaluated by a fluorescence technique using ethidium bromide (EB) bound to CT-DNA (EB-CT-DNA) solution in Tris-HCl buffer (pH = 7.20). EB is a planar cationic dye which is widely used as a sensitive fluorescence probe for native DNA. EB emits intense fluorescent light in the presence of DNA due to its strong intercalation between the adjacent DNA base-pairs. The changes in the fluorescence intensity at 602 nm (excitation at 545 nm) of EB-CT-DNA were measured with respect to the concentration of the copper(II) complexes. In fact, when it is removed, EB is non-emissive in Tris-HCl buffer solution (pH = 7.20), due to fluorescence quenching of the free EB by solvent molecules.

pUC 19 plasmid DNA = test: Agarose gel electrophoresis of supercoiled plasmid DNA; design: species or system Escherichia coli; conditions: 100 µM, Tris-HCl pH 7.20, 37 °C, 24 h
Experimental: Studies of interactions between the compounds under study and supercoiled plasmid DNA by agarose gel electrophoresis were carried out. Thus, 136 ng of purified plasmid DNA-pUC 19 from Escherichia coli (Sigma-Aldrich Brasil, São Paulo, Brazil) were incubated with compounds 1, 2 and cisplatin at 100 µM in Tris-HCl buffer (NaCl 50 mM, Tris-HCl 5 mM, pH = 7.20). The mixture was incubated at 37 °C for 24 h. Thereafter, the reactions were quenched by adding 5 µL of the loading buffer solution (50 mM Tris, pH 7.20, 0.01% bromophenol blue, 50% glycerol, and 250 mM EDTA). The samples were analyzed by 1% agarose gel electrophoresis in 0.5 × TBE buffer for 1 h 40 min at […]. The gel was stained after electrophoresis in 0.5× TBE buffer with 2.5 µg·mL^−1 ethidium bromide for 15 min and visualized by UV light.

Row | Structure (SMILES) | apparent binding constant Kapp (EB-CT-DNA) (EB-CT-DNA) | number of binding sites n (EB-CT-DNA) (EB-CT-DNA) | Stern-Volmer quenching constant Ksv (EB-CT-DNA) (EB-CT-DNA) | binding constant K (EB-CT-DNA, Scatchard) (EB-CT-DNA) | hypochromism in the EB-CT-DNA emission band at 602 nm (EB-CT-DNA) | alteration in the electrophoretic mobility of pUC 19 plasmid DNA (pUC 19 plasmid DNA)
1 | CC(=O)NN=C(c1ccccc1)c1ccccn1.[Cl][Cu][Cl] [compound 2, [dichloro(2-benzoylpyridineacetylhydrazone)copper(II)]] | 207000 M⁻¹ | 0.81 ± 0.02 | (2.05 ± 0.03) × 10^3 M^−1 | (0.38 ± 0.01) × 10^3 M^−1 | ≤ 20% | no alteration in the electrophoretic mobility
2 | CC(=O)NN=C(C)c1ccccn1.[Cl][Cu][Cl] [compound 1, [dichloro(2-acetylpyridineacetyl-hydrazone)copper(II)]] | 234000 M⁻¹ | 1.04 ± 0.01 | (2.35 ± 0.03) × 10^3 M^−1 | (0.35 ± 0.01) × 10^4 M^−1 | up to 24% | no alteration in the electrophoretic mobility
